Laboratory results from US20070123592A1, “Terephthalamide peptidomimetic compounds and methods” (YALE UNIVERSITY, priority 2004, published 2007).
Several values for one entry are separate records, joined by “and”; a condition that tells them apart may be missing. Equal entries are not always repeated.

Key:
Bcl-xL/Bak complex = biological target: T1, Bcl-xL/Bak complex (Homo sapiens, UniProt Q07817); assay: Fluorescence polarization competition assay (displacement of fluorescein-labeled Bak peptide from Bcl-xL); format: binding; settings: for Ki / K1 ± S.D.: 15 nM Fl-Bak, 184 nM Bcl-xL, 10 mM PBS pH 7.4, 25° C., mean of three independent experiments; for Ki: read-out: K1 ± S.D.; for affinity / activity in disrupting the Bcl-xL/Bak interaction (in words): summary of Table 1
T1 construct: made in house
T1 sequence (Q07817 whole entry, species assumed, one chain of several): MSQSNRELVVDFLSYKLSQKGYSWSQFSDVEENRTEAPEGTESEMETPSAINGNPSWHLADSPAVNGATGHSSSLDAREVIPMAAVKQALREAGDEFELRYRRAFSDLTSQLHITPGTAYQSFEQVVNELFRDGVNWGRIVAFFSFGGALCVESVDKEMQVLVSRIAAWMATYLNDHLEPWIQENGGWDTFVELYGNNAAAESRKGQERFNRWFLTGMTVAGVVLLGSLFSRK
Method: Fluorescence polarization experiments were conducted on a Photon Technology International instrument using a 0.3 cm path length cuvette.

15N-labeled Bcl-xL = 15N-labeled Bcl-xL (Homo sapiens, UniProt Q07817); assay: (15N,1H)-2D-HSQC amide chemical shift perturbation mapping; format: binding; settings: 2 mM Bcl-xL, 0, 1, 2 mM compound, 10% DMSO/D2O, 25° C., PBS pH 7.0
Sequence of 15N-labeled Bcl-xL (Q07817 whole entry): as the sequence (Q07817 whole entry, species assumed, one chain of several) above
Method: (^15N, ^1H)-2D-HSQC spectra were recorded on a Varian DPX-600 spectrometer. The concentration of Bcl-xL was 2 mM, with 0, 1 mM, 2 mM 3-26, respectively, in 10% DMSO/D2O (25° C., 10.0 mM PBS, pH 7.0).
To structurally probe the binding mode of the terephthalamide, (^15N, ^1H)-2D-amide chemical shift perturbation mapping with ^15N-labeled Bcl-xL were performed as above. Addition of compound 3-26 led to shifts in a number of residues on the surface of Bcl-xL. […] These affected residues all lie in the shallow cleft on the protein into which the Bak helix binds.

Ki (Bcl-xL/Bak complex) | affinity / activity in disrupting the Bcl-xL/Bak interaction (in words) (Bcl-xL/Bak complex) | SMILES | also measured
0.78 µM and 0.781 µM | low micro-molar Ki values | COC(=O)[C@H](CC(C)C)NC(=O)c1ccc(C(=O)N(C(C)C)C(C)C)cc1OC(C)C [Compound 3-9, (S)-2-(4-Diisopropylcarbamoyl-2-isopropoxy-benzoylamino)-4-methyl-pentanoic acid methyl ester] | –
0.839 ± 0.171 µM | – | CC(C)C[C@H](NC(=O)c1ccc(C(=O)N(C(C)C)C(C)C)cc1OC(C)C)C(=O)O [Compound 3-10] | –
3.31 ± 0.345 µM | – | CC(C)C[C@H](NC(=O)c1ccc(C(=O)N(C(C)C)C(C)C)cc1NC(C)C)C(=O)O [Compound 3-17, (S)-2-(4-Diisopropylcarbamoyl-2-isopropylamino-benzoylamino)-4-methyl-pentanoic acid] | affinity less than 2-isopropoxy analogue 3-10 (Bcl-xL/Bak complex; relative to 3-10): 4 fold
– | did not show activity | COC(=O)[C@H](CC(C)C)NC(=O)c1ccc(C(=O)N(CC(C)C)[C@@H](C)C(=O)OC)cc1OC(C)C [Compound 3-22, (S)-2-{4-[Isobutyl-((S)-1-methoxycarbonyl-ethyl)-carbamoyl]-2-isopropoxy-benzoylamino}-4-methyl-pentanoic acid methyl ester] | K1 ± S.D. (Bcl-xL/Bak complex): No affinity
8.34 ± 1.61 µM | – | COC(=O)[C@H](C)NC(=O)c1ccc(C(=O)N(C)C)cc1OC(C)C [Compound 3-33, (S)-2-(4-Dimethylcarbamoyl-2-isopropoxy-benzoylamino)-propionic acid methyl ester] | –
8.92 ± 3.59 µM | – | CC(C)Oc1cc(C(=O)N(C)C)ccc1C(=O)N[C@@H](Cc1ccccc1)C(=O)O [Compound 3-35, (S)-2-(4-Dimethylcarbamoyl-2-isopropoxy-benzoylamino)-3-phenyl-propionic acid] | –
2.44 ± 0.947 µM | low micro-molar Ki values | CCN(CC)C(=O)c1ccc(C(=O)N[C@@H](C)C(=O)OC)c(OC(C)C)c1 [Compound 3-37, (S)-2-(4-Diethylcarbamoyl-2-isopropoxy-benzoylamino)-propionic acid methyl ester] | –
11.4 ± 5.09 µM | – | CCN(CC)C(=O)c1ccc(C(=O)N[C@@H](CC(C)C)C(=O)OC)c(OC(C)C)c1 [Compound 3-38, (S)-2-(4-Diethylcarbamoyl-2-isopropoxy-benzoylamino)-4-methyl-pentanoic acid methyl ester] | –
8.76 ± 2.78 µM | – | COC(=O)[C@H](C)NC(=O)c1ccc(C(=O)N(CC(C)C)CC(C)C)cc1OC(C)C [Compound 3-39, (S)-2-(4-Diisobutylcarbamoyl-2isopropoxy-benzoylamino)-propionic acid methyl ester] | –
8.36 ± 3.8 µM | – | COC(=O)[C@H](CC(C)C)NC(=O)c1ccc(C(=O)N(CC(C)C)CC(C)C)cc1OC(C)C [Compound 3-40, (S)-2-(4-Diisobutylcarbamoyl-2-isopropoxy-benzoylamino)-4-methyl-pentanoic acid methyl ester] | –
138 ± 49.5 µM | – | COC(=O)[C@@H](NC(=O)c1ccc(C(=O)N(CC(C)C)CC(C)C)cc1OC(C)C)C(C)C [Compound 3-41, (S)-2-(4-Diisobutylcarbamoyl-2-isopropoxy-benzoylamino)-3-methyl-butyric acid methyl ester] | –
260 ± 58 µM | most of the affinity was lost | CC(C)Oc1cc(C(=O)N(c2ccccc2)c2ccccc2)ccc1C(=O)N[C@@H](C)C(=O)O [Compound 3-42, (S)-2-(4-Diphenylcarbamoyl-2-isopropoxy-benzoylamino)-propionic acid] | –
780 ± 174 µM | most of the affinity was lost | CC(C)C[C@H](NC(=O)c1ccc(C(=O)N(c2ccccc2)c2ccccc2)cc1OC(C)C)C(=O)O [Compound 3-43, (S)-2-(4-Diphenylcarbamoyl-2-isopropoxy-benzoylamino)-4-methyl-pentanoic acid] | –
– | most of the affinity was lost | COC(=O)[C@H](CC(C)C)NC(=O)c1ccc(C(=O)N(c2ccccc2)c2ccccc2)cc1OC(C)C [Compound 3-44, (S)-2-(4-Diphenylcarbamoyl-2-isopropoxy-benzoylamino)-4-methyl-pentanoic acid methyl ester] | K1 ± S.D. (Bcl-xL/Bak complex): No affinity
– | most of the affinity was lost | CC(C)Oc1cc(C(=O)N(c2ccccc2)c2ccccc2)ccc1C(=O)N[C@@H](Cc1ccccc1)C(=O)O [Compound 3-45, (S)-2-(4-Diphenylcarbamoyl-2-isopropoxy-benzoylamino)-3-phenyl-propionic acid] | K1 ± S.D. (Bcl-xL/Bak complex): No affinity
– | – | CC(C)CC(NC(=O)c1ccc(C(=O)NCC(=O)O)cc1O)C(=O)O (centres unmarked) [Compound 3-46] | K1 ± S.D. (Bcl-xL/Bak complex): No affinity

SMILES | Ki (Bcl-xL/Bak complex) | affinity / activity in disrupting the Bcl-xL/Bak interaction (in words) (Bcl-xL/Bak complex) | also measured
COC(=O)[C@H](CC(C)C)NC(=O)c1ccc(C(=O)N(C(C)C)C(C)C)cc1OC [Compound 3-26, (S)-2-(4-Diisopropylcarbamoyl-2-methoxy-benzoylamino)-4-methyl-pentanoic acid methyl ester] | 1.85 ± 0.318 µM | – | amide chemical shift changes of Bcl-xL residues on addition of inhibitor (15N-labeled Bcl-xL): significant chemical shift changes
